Test results: ChEMBL document CHEMBL4651402, “Screening of ~5500 FDA-approved drugs and clinical candidates for anti-SARS-CoV-2 activity” (2021)

Tested on: SARS-CoV-2
Experiment: microbe, parasite or virus in culture
Settings: Severe acute respiratory syndrome coronavirus 2, Vero C1008, 48 h

Row | Structure (SMILES) | IC50 [µM] | IC50 (read-out: pIC50 (converted)) [µM]
1 | COc1cccc(C(=O)CCNC(C)C(O)c2ccccc2)c1 (configuration not stated) | > 20 | > 20
2 | CC12CCC3c4ccc(OS(=O)(=O)O)cc4CCC3C1CCC2O (configuration not stated) | > 20 | > 20
3 | C=CCc1ccccc1OC[C@@H](O)CNC(C)C | > 20 | > 20
4 | CC(=O)[C@H]1CC[C@H]2[C@@H]3CC=C4C[C@@H](OS(=O)(=O)O)CC[C@]4(C)[C@H]3CC[C@]12C | > 20 | > 20
5 | O=c1c2ccccc2nc2n1CCCC2 | > 20 | > 20
6 | COc1cnc(NS(=O)(=O)c2ccc(N)cc2)nc1 | > 20 | > 20
7 | C[N+]1(C)CCC(=C(c2ccccc2)c2ccccc2)CC1 | > 20 | > 20
8 | CCN(CC)C(=O)c1ccc(O)c(OC)c1 | > 20 | > 20
9 | CC(=O)c1ccc(C)cc1N[C@H](C(N)=O)c1c(Cl)cccc1Cl | > 20 | > 20
10 | COC(=O)[C@@H](N)CCCNC(=N)N[N+](=O)[O-] | > 20 | > 20
11 | COc1ccc(CCN(C)CCCC2(c3ccc(OC)c(OC)c3)S(=O)(=O)CCCS2(=O)=O)cc1OC | > 20 | > 20
12 | Cc1cc2c(cc1S(N)(=O)=O)S(=O)(=O)CCC2 | > 20 | > 20
13 | CC12CCC3C4CCC(=O)C=C4CCC3C1CCC2OC(=O)CCc1ccccc1 (configuration not stated) | > 20 | > 20
14 | CN1CCC(OC(c2ccccc2)c2ccccc2)CC1 | > 20 | > 20
15 | CN1CCC[C@@H]1Cc1c[nH]c2ccc(CCS(=O)(=O)c3ccccc3)cc12 | > 20 | > 20
16 | O=C1C(Cl)=C(Cl)C(=O)c2c(O)ccc(O)c21 | > 20 | > 20
17 | CN(C)N=Nc1[nH]cnc1C(N)=O | > 20 | > 20
18 | NC(=O)c1[nH]cnc1N | > 20 | > 20
19 | CC(=O)OCC1=C(C(=O)O)N2C(=O)[C@@H](N)[C@H]2SC1 | > 20 | > 20
20 | CC(C)c1ccc2c(c1)CCC1C(C)(CN)CCCC21C (configuration not stated) | > 20 | > 20
21 | CC(C)N1CCN(c2ccc(N3CCN(c4ccc(OC[C@@H]5OC[C@@](Cn6cncn6)(c6ccc(F)cc6F)O5)cc4)CC3)cc2)C1=O | > 20 | > 20

Row | Structure (SMILES) | IC50 [µM] | IC50 (read-out: pIC50 (converted)) [µM]
22 | NC(COP(=O)(O)O)C(=O)O (configuration not stated) | > 20 | > 20
23 | CC(C)CCC[C@@H](C)[C@H]1CC[C@H]2[C@@H]3CC=C4CC(O)CC[C@]4(C)[C@H]3CC[C@]12C (some centres not stated) | > 20 | > 20
24 | CC(C)C1C(=O)N2CCCC2C2(O)OC(NC(=O)C3C=C4c5cccc6[nH]cc(c56)CC4N(C)C3)(C(C)C)C(=O)N12 (configuration not stated) | > 20 | > 20
25 | CCCNS(=O)(=O)Nc1ncnc(OCCOc2ncc(Br)cn2)c1-c1ccc(Br)cc1 | > 20 | > 20
26 | Cc1ccc2c([nH]c(=O)c3c(=O)cc(C(=O)OCCC(C)C)oc32)c1C | > 20 | > 20
27 | Cc1c(C)c2ccc(OCCCN3CCN(Cc4ccc(Cl)cc4)CC3)cc2oc1=O | > 20 | > 20
28 | CC(=O)OC1(c2ccccc2)CCN(CCc2ccccc2)CC1 | > 20 | > 20
29 | CC(=O)N1C[C@H](O)C[C@H]1C(=O)N[C@@H](CCCN=C(N)N)C(=O)c1nc2ccccc2s1 | > 20 | > 20
30 | CNC(=O)[C@@H](NC(=O)[C@H](CC(C)C)[C@H](O)C(=O)NO)C(C)(C)C | > 20 | > 20
31 | CC(=O)N[C@H](Cc1c[nH]c2ccccc12)C(=O)O | > 20 | > 20
32 | COc1ccc(-c2cc(=O)c3c(O)cc(O[C@@H]4O[C@H](CO[C@H]5O[C@H](C)[C@@H](O)[C@H](O)[C@@H]5O)[C@@H](O)[C@H](O)[C@H]4O)cc3o2)cc1O | > 20 | > 20
33 | c1ccc2c(c1)cc1ccc3cccc4ccc2c1c34 | > 20 | > 20
34 | NC1CC1c1ccccc1 (configuration not stated) | > 20 | > 20
35 | C[C@]12CC[C@H](O)CC1CC[C@@H]1[C@@H]2CC[C@]2(C)C(=O)CC[C@@H]12 (some centres not stated) | > 20 | > 20
36 | CC=CC(=O)N(CC)c1ccccc1C | > 20 | > 20
37 | NC(=O)CN1CC(c2ccccc2)CC1=O (configuration not stated) | > 20 | > 20
38 | NC(CSSCC(N)C(=O)O)C(=O)O (configuration not stated) | > 20 | > 20
39 | O=C(O)c1ccc(C2CC2c2ccc(OCc3c(-c4c(Cl)cccc4Cl)noc3C3CC3)cc2Cl)cc1 (configuration not stated) | > 20 | > 20
40 | CN1C(=O)C(NC(=O)c2cc3ccccc3[nH]2)N=C(c2ccccc2)c2ccccc21 (configuration not stated) | > 20 | > 20
41 | COCc1c(-c2ccc(NC(=O)Nc3cc(C(F)(F)F)ccc3F)c(F)c2)c2c(N)ncnn2c1CN1CCOCC1 | > 20 | > 20
42 | Nc1ccc(N)cc1 | > 20 | > 20

Row | Structure (SMILES) | IC50 [µM] | IC50 (read-out: pIC50 (converted)) [µM]
43 | O=C(O)CCCCCCC[C@@H](O)[C@@H](O)CCCCCCO | > 20 | > 20
44 | OC[C@H]1O[C@H](O)C[C@@H](O)[C@@H]1O | > 20 | > 20
45 | CC(C)OC(=O)[C@H](C)NP(=O)(OC[C@H]1O[C@@H](n2ccc(=O)[nH]c2=O)[C@](C)(Cl)[C@@H]1O)Oc1ccccc1 (some centres not stated) | > 20 | > 20
46 | CCOC(N)=O | > 20 | > 20
47 | NC1=NCC(CN2CCN(c3ccccc3)CC2)O1 (configuration not stated) | > 20 | > 20
48 | COc1ccc2c3c1OC1C(OC(C)=O)=CCC4C(C2)N(C)CCC314 (configuration not stated) | > 20 | > 20
49 | CC1CC2C3CCC4=CC(=O)C=CC4(C)[C@@]3(F)C(O)CC2(C)C1(O)C(=O)COP(=O)(O)O (some centres not stated) | > 20 | > 20
50 | N=C(N)Nc1ccc(C(=O)Oc2ccc3c(c2)OC[C@H]3CC(=O)N[C@@H](CC(=O)O)C(=O)O)cc1 | > 20 | > 20
51 | O=C(O)c1ccc(CN2CC3CC2CN3Cc2ccc(Oc3ccc(-c4ncco4)cc3)cc2)cc1 (configuration not stated) | > 20 | > 20
52 | O=C(O)CC/C=C\C[C@H]1CO[C@@H](c2ccccc2Cl)O[C@H]1c1ccccc1O | > 20 | > 20
53 | CNC(=O)CCN1CCN(CCC=C2c3ccccc3Sc3ccc(Cl)cc32)CC1 | > 20 | > 20
54 | C=CCNS(=O)(=O)c1cc(S(N)(=O)=O)c(Cl)cc1/N=C/C=C(\C)O | > 20 | > 20
55 | c1ccc([C@@H]2CN=C3NCCN32)cc1 | > 20 | > 20
56 | CCOC(=O)C1OC1C(=O)NC(CC(C)C)C(=O)N1CCN(Cc2ccc(OC)c(OC)c2OC)CC1 (configuration not stated) | > 20 | > 20
57 | CN(C)[C@@H]1[C@@H]2C=CC[C@H]1c1ccccc1C2 | > 20 | > 20
58 | CC1CC2C3CC(F)C4=CC(=O)C=CC4(C)C3C(O)CC2(C)C1C(=O)CO (configuration not stated) | > 20 | > 20
59 | CCC[C@@H]1C[C@@H](C(=O)N[C@@H](C(C)O)[C@H]2O[C@H](SC)[C@H](O)[C@@H](O)[C@H]2O)N(C)C1 (some centres not stated) | > 20 | > 20
60 | Cc1nnc(SCC2=C(C(=O)O)N3C(=O)C(NC(=O)C(N)c4ccc(O)cc4)C3SC2)s1 (configuration not stated) | > 20 | > 20
61 | Nc1ncnc2c1nc(Cl)n2C1O[C@H](CO)[C@@H](O)[C@H]1O (some centres not stated) | > 20 | > 20
62 | C[C@H]1O[C@H](OC[C@@H]2O[C@H](Oc3c(-c4ccc(O)c(O)c4)oc4cc(O)cc(O)c4c3=O)[C@@H](O)[C@H](O)[C@H]2O)[C@@H](O)[C@@H](O)[C@@H]1O | > 20 | > 20
63 | COc1ccc(-c2nc3cc(C4=NNC(=O)C[C@H]4C)ccc3[nH]2)cc1 | > 20 | > 20

Row | Structure (SMILES) | IC50 [µM] | IC50 (read-out: pIC50 (converted)) [µM]
64 | CN(C)Cc1ccc(CSCCNC2=NS(=O)(=O)c3cscc32)o1 | > 20 | > 20
65 | CC(CCC(=O)O)C1CCC2C3C[C@H](O)[C@@H]4C[C@H](O)CC[C@]4(C)C3CC[C@]12C (some centres not stated) | > 20 | > 20
66 | COc1ccc2c(c1)c(CC(=O)NC(CO)C(=O)O)c(C)n2C(=O)c1ccc(Cl)cc1 (configuration not stated) | > 20 | > 20
67 | CN(C)C1C(O)=C(C(N)=O)C(=O)C2(O)C(O)=C3C(=O)c4c(O)ccc(Cl)c4C(C)(O)C3CC12 (configuration not stated) | > 20 | > 20
68 | CCC(=O)Oc1ccc2c(c1)CCC1C2CCC2(C)C(OC(=O)CC)CCC12 (configuration not stated) | > 20 | > 20
69 | CCC(C)C1OC2(CCC1C)CC1CC(C/C=C(/C)C(OC3CC(OC)C(OC4CC(OC)C(O)C(C)O4)C(C)O3)C(C)/C=C\C=C3\COC4C(O)C(C)=CC(C(=O)O1)C34O)O2 (configuration not stated) | > 20 | > 20
70 | CC1CC[C@@]2(OC1)OC1CC3C4CC[C@H]5C[C@@H](O)CC[C@]5(C)C4C[C@@H](O)[C@]3(C)C1[C@@H]2C (some centres not stated) | > 20 | > 20
71 | OC[C@@H]1CCCN2CCCCC12 (some centres not stated) | > 20 | > 20
72 | CC1CC[C@@]2(OC1)OC1CC3C4CC[C@H]5CC(O)CCC5(C)C4CC(=O)C3(C)C1C2C (some centres not stated) | > 20 | > 20
73 | CCOc1ccc(NC(=O)C(C)O)cc1 (configuration not stated) | > 20 | > 20
74 | CC(C)CCCC(C)C1CCC2C3C=CC4=CC(=O)CCC4(C)C3CCC12C (configuration not stated) | > 20 | > 20
75 | COC(=O)CCC(C)C1CCC2C3C(C[C@H](O)[C@]12C)[C@@]1(C)CC[C@@H](O)C[C@H]1C[C@H]3O (some centres not stated) | > 20 | > 20
76 | O=C(O)CCCCCc1cccc2cncn12 | > 20 | > 20
77 | CC(/C=C1\SC(=S)N(CC(=O)O)C1=O)=C\c1ccccc1 | > 20 | > 20
78 | CCN(CC)CCOC(=O)C1(c2ccccc2)CCCC1 | > 20 | > 20
79 | O=C(/C=C/c1ccc(O)c(O)c1)OC(Cc1ccc(O)c(O)c1)C(=O)O (configuration not stated) | > 20 | > 20
80 | COc1cccc(OC)c1-c1ccc(C[C@H](NC(=O)c2c(Cl)cccc2Cl)C(=O)O)cc1 | > 20 | > 20
81 | Cc1ccc(C[N+](C)(C)C)o1 | > 20 | > 20
